Results taken from BindingDB's records for doi:10.1021/acs.jmedchem.7b00089 (International Centre For Genetic Engineering and …, 2017).

Biological target: T1, Heme ligase (Plasmodium falciparum (isolate 3D7), UniProt Q8IL04)
T1 sequence (Q8IL04 whole entry): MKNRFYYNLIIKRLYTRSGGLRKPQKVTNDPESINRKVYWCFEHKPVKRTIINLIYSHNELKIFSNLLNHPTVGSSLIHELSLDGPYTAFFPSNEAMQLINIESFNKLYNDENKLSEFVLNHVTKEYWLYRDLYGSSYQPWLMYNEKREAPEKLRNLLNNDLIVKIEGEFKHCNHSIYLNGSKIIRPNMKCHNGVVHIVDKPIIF
Experiment: ChEBML_1681013
Text: Binding affinity to Plasmodium falciparum 3D7 HDP assessed as equilibrium dissociation constant by SPR assay

Structure (SMILES): FC(F)(F)c1cccc(N2CCN(C3=Cc4ccccc4CC3)CC2)c1
- Kd: 2960 nM
